Columns and labels:
[1] = test system: giant foxtail; assay: Test B pre/postemergence giant foxtail; format: in vivo, Setaria faberii; conditions: for Giant foxtail plant response rating: Postemergence; for Plant response rating, Giant foxtail: Preemergence
Procedure, shortened: (§1)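 Herbicidal effect was estimated by eye on a ten-point control scale after plants spent twelve to sixteen days in a greenhouse following soil or foliar treatment. Foliar sprays targeted plants at one to four leaves; all doses were formulated in a non-phytotoxic solvent with surfactant.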

[2] = test system: surinam grass; assay: Test B pre/postemergence surinam grass; format: in vivo, Brachiaria decumbens; conditions: for B. signalgrass plant response rating: Postemergence; for Plant response rating, B. signalgrass: Preemergence
Procedure, shortened: as §1

[3] = test system: purple nutsedge; assay: Test B pre/postemergence purple nutsedge; format: in vivo, Cyperus rotundus; conditions: for Nutsedge plant response rating: Postemergence; for Plant response rating, Nutsedge: Preemergence
Procedure, shortened: as §1

[4] = test system: blackgrass; assay: Test B pre/postemergence blackgrass; format: in vivo, Alopecurus myosuroides; conditions: for Blackgrass plant response rating: Postemergence; for Plant response rating, Blackgrass: Preemergence
Procedure, shortened: as §1

[5] = test system: wheat; assay: Test B pre/postemergence wheat; format: in vivo, Triticum aestivum; conditions: for Wheat plant response rating: Postemergence; for Plant response rating, Wheat: Preemergence
Procedure, shortened: as §1

[6] = test system: bedstraw; assay: Test B pre/postemergence bedstraw; format: in vivo, Galium aparine; conditions: Postemergence
Procedure, shortened: as §1

[7] = test system: corn; assay: Test B pre/postemergence corn; format: in vivo, Zea mays; conditions: for Corn plant response rating: Postemergence; for Plant response rating, Corn: Preemergence
Procedure, shortened: as §1

[8] = test system: soybean; assay: Test B pre/postemergence soybean; format: in vivo, Glycine max; conditions: for Soybean plant response rating: Postemergence; for Plant response rating, Soybean: Preemergence
Procedure, shortened: as §1

[9] = test system: smallflower flatsedge; assay: Test B flood test smallflower flatsedge; format: in vivo, Cyperus difformis
Procedure, shortened: (§2)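 Flood test on plants grown to the 2-leaf stage; treated plants kept in greenhouse twelve to sixteen days, then visually rated against controls on a 0 (no effect) to 10 (complete control) scale.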

[10] = test system: rice; assay: Test B flood test rice; format: in vivo, Oryza sativa
Procedure, shortened: as §2

[11] = test system: duck salad; assay: Test B flood test duck salad; format: in vivo, Heteranthera limosa
Procedure, shortened: as §2

[12] = test system: morningglory; assay: Test B pre/postemergence morningglory; format: in vivo, Ipomoea hederacea; conditions: for Morningglory plant response rating: Postemergence; for Plant response rating, Morningglory: Preemergence
Procedure, shortened: as §1

[13] = test system: velvetleaf; assay: Test B pre/postemergence velvetleaf; format: in vivo, Abutilon theophrasti; conditions: for Velvetleaf plant response rating: Postemergence; for Plant response rating, Velvetleaf: Preemergence
Procedure, shortened: as §1

[14] = test system: crabgrass; assay: Test B pre/postemergence crabgrass; format: in vivo, Digitaria sanguinalis; conditions: for Crabgrass plant response rating: Postemergence; for Plant response rating, Crabgrass: Preemergence
Procedure, shortened: as §1

[15] = test system: cocklebur; assay: Test B pre/postemergence cocklebur; format: in vivo, Xanthium strumarium; conditions: for Cocklebur plant response rating: Postemergence; for Plant response rating, Cocklebur: Preemergence
Procedure, shortened: as §1

[16] = test system: wild oat; assay: Test B pre/postemergence wild oat; format: in vivo, Avena fatua; conditions: for Wild oats plant response rating: Postemergence; for Plant response rating, Wild oats: Preemergence
Procedure, shortened: as §1

[17] = test system: rape; assay: Test B pre/postemergence rape; format: in vivo, Brassica napus; conditions: for Rape plant response rating: Postemergence; for Plant response rating, Rape: Preemergence
Procedure, shortened: as §1

[18] = test system: bamyardgrass; assay: Test B flood test barnyardgrass; format: in vivo, Echinochloa crus-galli
Procedure, shortened: as §2

[19] = test system: pigweed; assay: Test B pre/postemergence pigweed; format: in vivo, Amaranthus retroflexus; conditions: for Redroot pigweed plant response rating: Postemergence; for Plant response rating, Redroot pigweed: Preemergence
Procedure, shortened: as §1

[20] = test system: sugar beet; assay: Test B pre/postemergence sugar beet; format: in vivo, Beta vulgaris; conditions: for Sugarbeets plant response rating: Postemergence; for Plant response rating, Sugarbeets: Preemergence
Procedure, shortened: as §1

[21] = Rate 125 g/ha, scale of 0 to 10 where 0 is no effect and 10 is complete control
[22] = Rate 1000 g/ha, scale 0 to 10 (0 no effect, 10 complete control)
[23] = Rate 500 g/ha, scale of 0 to 10 where 0 is no effect and 10 is complete control
[24] = Rate 250 g/ha, scale 0 to 10, 0 is no effect, 10 is complete control
[25] = Rate 500 g/ha, scale 0 to 10, 0 is no effect, 10 is complete control
[26] = Rate 250 g/ha, scale 0 to 10 (0 no effect, 10 complete control)
[27] = Pre-emergence, Rate 1000 g/ha, scale 0 to 10 (0 no effect, 10 complete control)
[28] = Rate 125 g/ha, under heading Pre-emergence, flood test species, visual evaluation after twelve to sixteen days
[29] = Rate 250 g/ha, Pre-emergence (flood test species), scale 0 to 10, 0 is no effect, 10 is complete control
[30] = Rate 500 g/ha, Pre-emergence section of Table B, 0 to 10 scale (0 no effect, 10 complete control)

## COC(=O)C(CCO)n1c(=O)on(C(=O)N(c2ccc(Cl)cc2)C(C)C)c1=O (centres unmarked) [Compound 679]
[1]; [21]
  Giant foxtail plant response rating: 0
  Plant response rating, Giant foxtail: 0
[1]; [22]
  Giant foxtail plant response rating: 5
  Plant response rating, Giant foxtail: 8
[1]; [23]
  Plant response rating, Giant foxtail: 8
[1]; [24]
  Giant foxtail plant response rating: 0
[1]; [25]
  Giant foxtail plant response rating: 4
[2]; [21]
  B. signalgrass plant response rating: 0
  Plant response rating, B. signalgrass: 0
[2]; [22]
  B. signalgrass plant response rating: 0
  Plant response rating, B. signalgrass: 0
[2]; [26]
  Plant response rating, B. signalgrass: 0
[2]; [23]
  Plant response rating, B. signalgrass: 0
[2]; [24]
  B. signalgrass plant response rating: 0
[2]; [25]
  B. signalgrass plant response rating: 0
[3]; [21]
  Nutsedge plant response rating: 0
  Plant response rating, Nutsedge: 0
[3]; [22]
  Nutsedge plant response rating: 0
[3]; [23]
  Plant response rating, Nutsedge: 0
[3]; [24]
  Nutsedge plant response rating: 0
[3]; [25]
  Nutsedge plant response rating: 0
[4]; [21]
  Blackgrass plant response rating: 0
  Plant response rating, Blackgrass: 0
[4]; [22]
  Blackgrass plant response rating: 1
  Plant response rating, Blackgrass: 5
[4]; [26]
  Plant response rating, Blackgrass: 0
[4]; [23]
  Plant response rating, Blackgrass: 0
[4]; [24]
  Blackgrass plant response rating: 0
[4]; [25]
  Blackgrass plant response rating: 0
[5]; [21]
  Wheat plant response rating: 0
  Plant response rating, Wheat: 0
[5]; [23]
  Plant response rating, Wheat: 0
[5]; [24]
  Wheat plant response rating: 0
[5]; [25]
  Wheat plant response rating: 0
[5]; [22]
  Plant response rating, Wheat: 0
[6]; [21]
  Bedstraw plant response rating: 0
[6]; [24]
  Bedstraw plant response rating: 0
[6]; [25]
  Bedstraw plant response rating: 0
[7]; [21]
  Corn plant response rating: 0
  Plant response rating, Corn: 0
[7]; [22]
  Corn plant response rating: 0
  Plant response rating, Corn: 2
[7]; [26]
  Plant response rating, Corn: 0
[7]; [23]
  Plant response rating, Corn: 0
[7]; [24]
  Corn plant response rating: 0
[7]; [25]
  Corn plant response rating: 0
[8]; [21]
  Soybean plant response rating: 0
  Plant response rating, Soybean: 0
[8]; [23]
  Plant response rating, Soybean: 0
[8]; [24]
  Soybean plant response rating: 1
[8]; [25]
  Soybean plant response rating: 1
[8]; [22]
  Plant response rating, Soybean: 0
[9]; [27]
  S. Flatsedge plant response rating: 0
[9]; [28]
  S. Flatsedge plant response rating (0 to 10 scale, 0 is no effect, 10 is complete control): 0
[9]; [29]
  S. Flatsedge plant response rating: 0
[9]; [30]
  S. Flatsedge plant response rating: 0
[10]; [27]
  Rice plant response rating: 0
[10]; [28]
  Rice plant response rating (0 to 10 scale, 0 is no effect, 10 is complete control): 0
[10]; [29]
  Rice plant response rating: 0
[10]; [30]
  Rice plant response rating: 0
[11]; [27]
  Ducksalad plant response rating: 0
[11]; [28]
  Ducksalad plant response rating (0 to 10 scale, 0 is no effect, 10 is complete control): 0
[11]; [29]
  Ducksalad plant response rating: 0
[11]; [30]
  Ducksalad plant response rating: 0
[12]; [21]
  Morningglory plant response rating: 0
  Plant response rating, Morningglory: 0
[12]; [22]
  Morningglory plant response rating: 2
  Plant response rating, Morningglory: 0
[12]; [23]
  Plant response rating, Morningglory: 0
[12]; [24]
  Morningglory plant response rating: 0
[12]; [25]
  Morningglory plant response rating: 2
[13]; [21]
  Velvetleaf plant response rating: 0
  Plant response rating, Velvetleaf: 0
[13]; [23]
  Plant response rating, Velvetleaf: 0
[13]; [24]
  Velvetleaf plant response rating: 0
[13]; [25]
  Velvetleaf plant response rating: 0
[13]; [22]
  Plant response rating, Velvetleaf: 0
[14]; [21]
  Crabgrass plant response rating: 0
  Plant response rating, Crabgrass: 0
[14]; [22]
  Crabgrass plant response rating: 2
  Plant response rating, Crabgrass: 3
[14]; [26]
  Plant response rating, Crabgrass: 0
[14]; [23]
  Plant response rating, Crabgrass: 1
[14]; [24]
  Crabgrass plant response rating: 0
[15]; [21]
  Cocklebur plant response rating: 0
  Plant response rating, Cocklebur: 0
[15]; [22]
  Cocklebur plant response rating: 1
  Plant response rating, Cocklebur: 0
[15]; [26]
  Plant response rating, Cocklebur: 0
[15]; [23]
  Plant response rating, Cocklebur: 0
[15]; [24]
  Cocklebur plant response rating: 0
[15]; [25]
  Cocklebur plant response rating: 0
[16]; [21]
  Wild oats plant response rating: 0
  Plant response rating, Wild oats: 0
[16]; [23]
  Plant response rating, Wild oats: 0
[16]; [24]
  Wild oats plant response rating: 0
[16]; [25]
  Wild oats plant response rating: 0
[16]; [22]
  Plant response rating, Wild oats: 0
[17]; [21]
  Rape plant response rating: 0
  Plant response rating, Rape: 0
[17]; [22]
  Rape plant response rating: 0
  Plant response rating, Rape: 0
[17]; [23]
  Plant response rating, Rape: 0
[17]; [24]
  Rape plant response rating: 0
[17]; [25]
  Rape plant response rating: 0
[18]; [27]
  Barnyardgrass plant response rating: 0
[18]; [28]
  Barnyardgrass plant response rating (0 to 10 scale, 0 is no effect, 10 is complete control): 0
[18]; [29]
  Barnyardgrass plant response rating: 0
[18]; [30]
  Barnyardgrass plant response rating: 0
[19]; [21]
  Redroot pigweed plant response rating: 0
  Plant response rating, Redroot pigweed: 0
[19]; [22]
  Redroot pigweed plant response rating: 2
  Plant response rating, Redroot pigweed: 6
[19]; [23]
  Plant response rating, Redroot pigweed: 1
[19]; [24]
  Redroot pigweed plant response rating: 0
[19]; [25]
  Redroot pigweed plant response rating: 0
[20]; [21]
  Sugarbeets plant response rating: 0
  Plant response rating, Sugarbeets: 0
[20]; [23]
  Plant response rating, Sugarbeets: 0
[20]; [24]
  Sugarbeets plant response rating: 0
[20]; [25]
  Sugarbeets plant response rating: 0
[20]; [22]
  Plant response rating, Sugarbeets: 0

From patent US6737383B1, “Herbicidal oxadiazolidines” (priority 1999, dated 2004)
